13 compounds from article PMC9050923, “6,N^2-Diaryl-1,3,5-triazine-2,4-diamines: synthesis, antiproliferative activity and 3D-QSAR modeling” (RSC Advances, 2020) can be followed below.

By melting point is commonly meant the temperature of the solid-liquid transition. For orientation: viability means a per cent measure of how many cells are alive, often set against a control.

The subject of one series is MDA-MB231. As to the kind of experiment: MTT assay, MDA-MB231 breast cancer cells. The format is cell-based. The following applies: Homo sapiens, MDA-MB-231; for viability at 10 µM: 72 h after the treatment, MTT, mean of three independent experiments, read-out: Percentage of cell viability MDA-MB231. A digest of the protocol: (§1)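 Cells seeded 24 h at 37 °C, 5% CO2, then treated 72 h with a concentration range; single-point screen at 10 μM gave % viability. MTT (0.5 mg/mL, 4 h), DMSO-solubilised, A570; GI50 from sigmoidal curves, mean of three experiments.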

For another series, the system named is SKBR-3. As to the kind of experiment: MTT assay, SKBR-3 breast cancer cells. It counts as cell-based. The following applies: Homo sapiens, SK-BR-3; 10 μM, 72 h after the treatment, MTT, mean of three independent experiments; read-out: Percentage of cell viability SKBR-3. The essentials:
as §1

The test system of a further series is MCF-7. As to the kind of experiment: MTT assay, MCF-7 breast cancer cells. It counts as cell-based. The following applies: Homo sapiens, MCF7, 10 μM, 72 h after the treatment, mean of three independent experiments, read-out: Percentage of cell viability MCF-7. A digest of the protocol:
as §1

`COc1ccc(Nc2nc(N)nc(-c3cccc(C)c3)n2)cc1` (hydrate or solvate) [Compound 57, N ^2-(4-Methoxyphenyl)-6-(3-methylphenyl)-1,3,5-triazine-2,4-diamine] showed a melting point of 150 to 152 °C.

The compound `Cc1cccc(-c2nc(N)nc(Nc3ccc(C(C)C)cc3)n2)c1` (hydrate or solvate) [Compound 59, N ^2-(4-Isopropylphenyl)-6-(3-methylphenyl)-1,3,5-triazine-2,4-diamine] showed a melting point of 134 to 136 °C.

In turn, `Nc1nc(Nc2ccccc2F)nc(-c2cccs2)n1` (hydrate or solvate) [Compound 116, N ^2-(2-Fluorophenyl)-6-(thiophen-2-yl)-1,3,5-triazine-2,4-diamine] gave a melting point of 165 to 167 °C.

In turn, `COc1ccc(Nc2nc(N)nc(-c3cccs3)n2)cc1` (hydrate or solvate) [Compound 123, N ^2-(4-Methoxyphenyl)-6-(thiophen-2-yl)-1,3,5-triazine-2,4-diamine] displayed a melting point of 139 to 141 °C.

With `Nc1nc(Nc2ccccc2F)nc(-c2ccccc2)n1` [Compound 2, N ^2-(2-Fluorophenyl)-6-phenyl-1,3,5-triazine-2,4-diamine], the melting point is 156 to 158 °C. In addition, in the series on MDA-MB231, the viability at 10 µM was 82%. Besides, in the series with SKBR-3, the viability at 10 µM was 83%. The viability at 10 µM in the series with MCF-7 turned out to be 99%.

The compound `Nc1nc(Nc2ccc(F)cc2)nc(-c2ccccc2)n1` [Compound 3, N ^2-(4-Fluorophenyl)-6-phenyl-1,3,5-triazine-2,4-diamine] gave a melting point of 172 to 174 °C. Further, the viability at 10 µM in the series with MDA-MB231 was found to be 81%. Besides, the viability at 10 µM in the series with SKBR-3 worked out at 84%. Further, the viability at 10 µM in the series on MCF-7 came to 100%.

Consider `COc1ccc(Nc2nc(N)nc(-c3ccc(F)cc3)n2)cc1` [Compound 30, 6-(4-Fluorophenyl)-N^2-(4-methoxyphenyl)-1,3,5-triazine-2,4-diamine], for which the melting point was in the range of 158 to 160 °C. The viability at 10 µM in the series with MDA-MB231 is 74%. The viability at 10 µM with SKBR-3 was determined as 90%. Besides, in the series on MCF-7, the viability at 10 µM stood at 92%.

`Nc1nc(Nc2ccccc2)nc(-c2ccc(Cl)cc2)n1` [Compound 34, 6-(4-Chlorophenyl)-N^2-phenyl-1,3,5-triazine-2,4-diamine] returned a melting point of 154 to 156 °C. Further, the viability at 10 µM in the series with MDA-MB231 was 81%. In the series with SKBR-3, the viability at 10 µM was determined as 100%. The viability at 10 µM in the series with MCF-7 amounted to 100%.

The compound `COc1ccc(Nc2nc(N)nc(-c3ccc(OC)cc3)n2)cc1` [Compound 71, N ^2,6-Bis(4-methoxyphenyl)-1,3,5-triazine-2,4-diamine] yielded a melting point of 163 to 165 °C. In addition, the viability at 10 µM in the series on MDA-MB231 stood at 56%. The GI50 in the series with MDA-MB231 (−log[GI50], MDA-MB231, read-out: Experimental pGI50 (converted)) is 14.1 µM. Also, in the series on SKBR-3, the viability at 10 µM is 93%. In the series on MCF-7, the viability at 10 µM was 95%.

`Nc1nc(Nc2ccc(F)cc2)nc(-c2ccc(C(F)(F)F)cc2)n1` [Compound 84, N ^2-(4-Fluorophenyl)-6-(4-(trifluoromethyl)phenyl)-1,3,5-triazine-2,4-diamine] showed a melting point of 150 to 152 °C. Further, the viability at 10 µM in the series with MDA-MB231 came to 95%. For the same compound, in the series with SKBR-3, the viability at 10 µM is 98%. Besides, the viability at 10 µM in the series with MCF-7 is 100%.

For `Nc1nc(Nc2ccc(F)cc2)nc(-c2ccc(OC(F)(F)F)cc2)n1` [Compound 91, N ^2-(4-Fluorophenyl)-6-(4-(trifluoromethoxy)phenyl)-1,3,5-triazine-2,4-diamine], the melting point lay within 139 to 140 °C. In addition, the viability at 10 µM with MDA-MB231 turned out to be 53%. For the same compound, the viability at 10 µM in the series on SKBR-3 was 86%. The viability at 10 µM in the series with MCF-7 came out at 100%.

In turn, `Nc1nc(Nc2ccc(F)cc2)nc(-c2ccc(OCc3ccccc3)cc2)n1` [Compound 111, 6-(4-(Benzyloxy)phenyl)-N^2-(4-fluorophenyl)-1,3,5-triazine-2,4-diamine] yielded a melting point of 177 to 179 °C. Moreover, in the series with MDA-MB231, the viability at 10 µM amounted to 69%. In addition, the viability at 10 µM in the series with SKBR-3 was determined as 84%. Moreover, the viability at 10 µM in the series with MCF-7 was 89%.

For the compound `COc1ccccc1Nc1nc(N)nc(-c2cccs2)n1` [Compound 122, N ^2-(2-Methoxyphenyl)-6-(thiophen-2-yl)-1,3,5-triazine-2,4-diamine], the melting point was in the range of 165 to 167 °C. Further, in the series on MDA-MB231, the viability at 10 µM was 78%. Also, the viability at 10 µM in the series with SKBR-3 was 97%. In addition, the viability at 10 µM in the series on MCF-7 was 91%.
